Measurements from US8067586B2, “Fused heteroaryl derivatives” (Astellas Pharma Inc., priority 2000, dated 2011).
Read-outs that look alike come from different tables or passages of the source.

How the values were obtained:
A375 cells = test: Melanoma cell growth inhibition (Alamar Blue); format: cell-based; conditions: Homo sapiens, A-375, incubation for over 46 hours
Description: A375 cells from a melanoma cell line were cultured in DMEM medium (GIBCO) supplemented with 10% fetal bovine serum. A375 cells at 10,000 cells/100 μl were added to a 96 well plate which contained 1 μl/well of the test compounds (final concentration of 0.001˜30 μM). After incubation for over 46 hours, Alamar Blue reagent was added to the medium (10 μl/well).

bovine p110α = bovine p110α (Bos taurus, UniProt P32871); test: Inhibition of PI3K (p110α subtype); format: biochemical
bovine p110α, sequence (P32871 whole entry): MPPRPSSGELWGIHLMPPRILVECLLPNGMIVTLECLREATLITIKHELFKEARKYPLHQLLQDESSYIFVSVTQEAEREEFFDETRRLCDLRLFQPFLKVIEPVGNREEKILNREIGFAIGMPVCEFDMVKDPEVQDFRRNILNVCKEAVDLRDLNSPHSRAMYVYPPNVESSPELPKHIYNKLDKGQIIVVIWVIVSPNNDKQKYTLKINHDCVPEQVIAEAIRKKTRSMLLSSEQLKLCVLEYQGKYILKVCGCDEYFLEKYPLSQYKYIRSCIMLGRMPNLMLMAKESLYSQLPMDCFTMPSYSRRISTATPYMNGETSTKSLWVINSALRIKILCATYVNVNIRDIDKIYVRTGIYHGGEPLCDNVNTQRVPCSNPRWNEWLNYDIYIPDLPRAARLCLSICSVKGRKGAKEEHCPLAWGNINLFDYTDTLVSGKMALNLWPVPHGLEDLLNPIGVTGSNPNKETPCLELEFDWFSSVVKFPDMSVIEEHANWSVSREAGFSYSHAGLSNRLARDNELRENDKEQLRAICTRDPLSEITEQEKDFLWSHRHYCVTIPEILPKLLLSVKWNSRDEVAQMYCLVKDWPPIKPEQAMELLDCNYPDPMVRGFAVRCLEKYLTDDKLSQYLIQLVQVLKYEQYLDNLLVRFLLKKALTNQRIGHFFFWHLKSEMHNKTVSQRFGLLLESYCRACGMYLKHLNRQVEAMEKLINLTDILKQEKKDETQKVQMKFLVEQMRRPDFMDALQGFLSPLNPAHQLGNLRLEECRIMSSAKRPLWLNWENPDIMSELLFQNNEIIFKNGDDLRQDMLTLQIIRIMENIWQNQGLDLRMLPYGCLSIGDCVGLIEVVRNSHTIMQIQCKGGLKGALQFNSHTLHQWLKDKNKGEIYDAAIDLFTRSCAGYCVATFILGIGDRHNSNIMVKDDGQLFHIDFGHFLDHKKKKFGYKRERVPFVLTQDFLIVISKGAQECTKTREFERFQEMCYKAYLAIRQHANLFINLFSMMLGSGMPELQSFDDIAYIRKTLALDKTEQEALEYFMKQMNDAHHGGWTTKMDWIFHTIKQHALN

| SMILES | IC50 (A375 cells) [nM] | other results |
| --- | --- | --- |
| O=C(Nc1cccc(-c2nc(N3CCOCC3)c3oc4ncccc4c3n2)c1)c1ccccn1 [Co 10] |  | IC50 (bovine p110α; bovine p110α, 37° C. for 15 minutes, read-out: IC50, p110α subtype inhibition): < 1000 nM |
| Nc1ccc(C(=O)Nc2cccc(-c3nc(N4CCOCC4)c4oc5ncccc5c4n3)c2)cn1 [Co 17, 6-amino-3′-(4-morpholinopyrido[3′,2′:4,5]furo[3,2-d]pyrimidin-2-yl)nicotinanilide] |  | IC50 (bovine p110α): < 1000 nM |
| Oc1cccc(-c2nc(N3CCOCC3)c3oc4ncccc4c3n2)c1 [Co 50, 3-(4-morpholinopyrido[3′,2′:4,5]furo[3,2-d]pyrimidin-2-yl)phenol] | 330 to 4260 |  |
| c1cc(OCCN2CCNCC2)cc(-c2nc(N3CCOCC3)c3oc4ncccc4c3n2)c1 [Co 69, 4-morpholino-2-[3-(2-piperazin-1-ylethoxy)phenyl]pyrido[3′,2′:4,5]furo[3,2-d]pyrimidine] | 330 to 4260 |  |
| Oc1cccc(-c2nc(N3CCOCC3)c3sccc3n2)c1 [Co 190, 3-(4-morpholinothieno[3,2-d]pyrimidin-2-yl)phenol] | 330 to 4260 |  |
| Oc1cccc(-c2nc(N3CCOCC3)c3ncccc3n2)c1 [Co 172, 3-(4-morpholinopyrido[3,2-d]pyrimidin-2-yl)phenol] | 330 to 4260 |  |

Further lines, with some results ahead:

| IC50 (A375 cells) [nM] | SMILES | other results |
| --- | --- | --- |
| 330 to 4260 | Oc1cccc(-c2nc(N3CCOCC3)c3ccncc3n2)c1 [Co 174, 3-(4-morpholinopyrido[3,4-d]pyrimidin-2-yl)phenol] |  |
| 330 to 4260 | Oc1cccc(-c2nc(N3CCOCC3)c3nccnc3n2)c1 [Co 191, 3-(4-morpholinopteridin-2-yl)phenol] |  |
| 330 to 4260 | Oc1cccc(-c2nc(N3CCOCC3)c3cnccc3n2)c1 [Co 164, 3-(4-morpholinopyrido[4,3-d]pyrimidin-2-yl)phenol] |  |
| 330 to 4260 | COc1ccc2nc(-c3cccc(O)c3)nc(N3CCOCC3)c2c1 [Co 186, 3-(6-methoxy-4-morpholinoquinazolin-2-yl)phenol] |  |
| 330 to 4260 | Nc1ccc(-c2nc(N3CCOCC3)c3oc4ncccc4c3n2)cc1 [Co 33, 4-(4-morpholinopyrido[3′,2′:4,5]furo[3,2-d]pyrimidin-2-yl)aniline] |  |
